The source of these data is US11446319B2, “Composition containing flavonoid-cyclodextrin clathrate compound” (TAIYO KAGAKU CO., LTD., priority 2018, dated 2022).

This data set has as its system human dermal fibroblasts. The format is cell-based. Conditions: 24 h. As for the experimental part:
Specifically, human dermal fibroblasts (manufactured by PromoCell) were subcultured in a 24-well plate using a medium for cells in a proportion of 3×10^4 cells/well. […] After 24 hours, the viability of the cells was analyzed.
The viability of the cells was analyzed as follows. The cells were incubated at 37° C. and 5% CO2 for 1 hour in the presence of Neutral Red (pigment) (The live cells incorporating Neutral Red, thereby making the cells distinguishable from dead cells or damaged cells, and quantifiable). Next, 50% ethanol and a solution of 0.05 M NaH2PO4 were added to the cells to thereby extract out the pigment from the cells. Thereafter, the absorbance of the cells was measured with a spectrophotometer at 540 nm, and compared to that of the cells unexposed to the light, and shown as viability (%)=(analytical value at 540 nm of the photo-irradiated cells×100/analytical value at 540 nm of the cells not irradiated with light) in Table 26.
The evaluation was made in the same manner as in Example 231 except that the composition used during the incubation for 24 hours was changed to have the components as listed in Tables 26 to 29.

On to `C[C@H](O)[C@H](O)[C@@H](O)[C@@H](O)C=O` [rhamnose], for which the viability entry is “about 5%”.
